{"source": "patent US20100048479A1", "about": "“ADRENAL GRK2 ACTIVITY AS A THERAPEUTIC TARGET FOR HEART FAILURE” (priority 2006, published 2010)", "key": {"[1]": {"system": "α2AR", "details": "HF animal models and human heart failure patients; cited from earlier work"}, "[2]": {"system": "α2AR", "experiment": "Moxonidine treatment of HF rats, plasma catecholamine levels", "assay_type": "in vivo, rat", "details": "7d of moxonidine 1 mg/kg/d intraperitoneally", "experimental": "In vivo adrenal gene delivery: All animal procedures and experiments were performed in accordance with the guidelines of the Institutional Animal Care and Use Committee of Thomas Jefferson University. For adrenal-specific in vivo gene delivery in HF rats, adenovirus was delivered directly to the adrenal gland using a surgical technique. Rats with chronic heart failure ten weeks after myocardial infarction were directly injected with virus into both of their adrenal glands, immediately after a transversal cut of the median abdomen was made and ventral visceral organs temporarily placed on the side so as to expose the retroperitoneal region. […] HF rats were treated with either AdβARKct or AdGFP as a control. […] For moxonidine treatment of HF rats, systemic administration of 1.0 mg/kg/d of moxonidine (delivered via a daily intraperitoneal injection) was initiated at the time of in vivo adrenal gene delivery and continued for seven days, at which time plasma was taken for determination of circulating catecholamine levels (see below).\nPlasma and in vitro catecholamine secretion measurements: Plasma Epi and NE levels were determined by ELISA, performed on rat and mouse plasma samples with the BI-CAT EIA kit from ALPCO Diagnostics (Windham, N.H.). In vitro Epi and NE secretion in the supernatant of cultured chromaffin cells was measured by use of the same ELISA kit essentially as described previously by Wilson & Kirschner, 3J. Neurosci. 1971-78 (1983). In vitro catecholamine (CA) secretion measurements. Briefly, 48 hrs post-isolation, chromaffin cells were placed in a balanced salts buffer and stimulated with 20 μM nicotine for 30 min, following pre-treatment with 10 μM UK14304 (Sigma-Aldrich) or vehicle for 30 min. At the end of nicotine treatment, the supernatant was collected for determination of its CA content. […] In all experiments, the supernatants used for CA measurements were collected from cultures of equal numbers of cells as determined by cell counting and post-experiment protein determination in harvested cells."}, "[3]": {"system": "α2AR", "details": "MOXSE and MOXCON trials; cited from earlier work"}, "[4]": {"system": "CSQ/Tg mouse-derived chromaffin cells", "experiment": "In vitro catecholamine secretion from chromaffin cells of CSQ/Tg and NLC mice (nicotine stimulus, UK14304 pre-treatment)", "assay_type": "cell-based", "details": "for Inhibition of Epi and NE secretion in response to nicotine: 10 μM UK14304 pre-treatment; for EC50: Mus musculus, n=6", "from_the_text": "(§1) Experimental Procedures: Adrenal chromaffin cell isolation and culture: The animal models of heart failure: mice with myocardial-targeted overexpression of calsequestrin (CSQ/Tg mice); male Sprague-Dawley rats (450-500 g; Harlan) ten weeks post-cryo-myocardial infarction (cryo-MI) (HF rats); as well as CSQ/βARKct mice, were previously established and characterized. Harding et al., 98 P.N.A.S. USA, 5809-14 (2001); Most et al., 114 J. Clin. Invest. 1550-63 (2004). Nontransgenic littermate mice were used as healthy controls for the mouse heart failure model. Chromaffin cells were isolated from adrenal glands excised from these animals and cultured as described previously in Brede et al., 2003. […] Cells from separate isolations were used in each experiment.\n(§2) Plasma and in vitro catecholamine secretion measurements: Plasma Epi and NE levels were determined by ELISA, performed on rat and mouse plasma samples with the BI-CAT EIA kit from ALPCO Diagnostics (Windham, N.H.). In vitro Epi and NE secretion in the supernatant of cultured chromaffin cells was measured by use of the same ELISA kit essentially as described previously by Wilson & Kirschner, 3J. Neurosci. 1971-78 (1983). In vitro catecholamine (CA) secretion measurements. Briefly, 48 hrs post-isolation, chromaffin cells were placed in a balanced salts buffer and stimulated with 20 μM nicotine for 30 min, following pre-treatment with 10 μM UK14304 (Sigma-Aldrich) or vehicle for 30 min. At the end of nicotine treatment, the supernatant was collected for determination of its CA content. Adenoviral-transfected cells were infected 48 hrs post-isolation and cells were subjected to the various treatments 24 hrs after transfection (72 hrs post-isolation). In all experiments, the supernatants used for CA measurements were collected from cultures of equal numbers of cells as determined by cell counting and post-experiment protein determination in harvested cells."}, "[5]": {"system": "HF rat chromaffin cells", "experiment": "In vitro catecholamine secretion from chromaffin cells of HF and sham rats (nicotine stimulus, UK14304 pre-treatment)", "assay_type": "cell-based", "details": "for EC50: Rattus norvegicus", "from_the_text": "as §1, §2"}, "[6]": {"system": "chromaffin cells isolated from HF or sham-operated rats", "details": "10 μM UK14304 pretreatment", "experimental": "Calibration and assessment of intracellular Ca^2+ transients in chromaffin cells in response to K^+-induced depolarization were performed essentially as described. Brede, 2003; Zhou & Neher, 469 J. Physiol. 245-73 (1993). Changes in intracellular Ca^2+ were monitored fluorimetrically using the Ca^2+-sensitive probe Fura 2 (1 μM). The recording system included a Zeiss, Axiovert S170 inverted microscope fitted with epifluorescence (monochromator TILL Polychrome II, Germany). Cells were alternatively illuminated at 340 nm and 380 nm at a frequency of 140 Hz. Emission for each excitation wavelength was filtered at 510 nm and digitized using interface (EPC9, HEKA, Germany). […] Chromaffin cells isolated from HF or sham-operated rats were exposed to 10 μM UK14304 or vehicle for 30 min in culture medium containing a fixed Ca^2+ concentration of 2.5 mM, and then 150 mM KCl was added to induce depolarization. Only round-shaped, healthy, and attached chromaffin cells with a resting 340/380 ratio lower than 1 were selected for measurement."}, "[7]": {"system": "rat primary chromaffin cells", "experiment": "βarr1 membrane recruitment in rat primary chromaffin cells", "assay_type": "cell-based", "details": "cells infected with GFP, 10 μM UK14304 for 8 min", "protocol": "β-arrestin membrane recruitment: βarr1 recruitment to rat primary chromaffin cell membranes or whole adrenal gland-derived plasma membranes was measured by western blotting in membrane preparations, essentially as described previously in Perry et al., 198 Science 834-36 (2002). Cultured chromaffin cells, isolated from rat adrenal glands, were transfected with the indicated recombinant adenoviruses and 24 hrs post-infection they were treated with vehicle or 10 μM UK14304 for 8 min. The cells were then harvested and plasma membranes prepared by hypotonic lysis with 5 mM TrisCl, 5 mM EDTA, pH 7.4, and subsequent ultracentrifugation at 47.000×g. The membranes were resuspended in RIPA buffer, containing Triton 0.5% and protease inhibitors, and then fractions of membrane lysates containing 50 μg of protein were loaded for SDS-PAGE, and subsequently western blotted with an antibody against rat βarr1 and −2 (A1CT40, a generous gift from Dr. R. J. Lefkowitz, Duke Univ. Medical Center, Durham, N.C.). Plasma membrane preparations from whole adrenal glands excised from in vivo infected rats were obtained by the same procedure. Blotting for actin in the same membrane lysates was also performed as loading control. βarr1 membrane recruitment was quantified as the densitometric ratio of βarr1 and actin bands detected in each sample."}, "[8]": {"system": "chromaffin cells", "experimental": "as §2\nFollowing this period, in vitro CA secretion assays were performed using nicotine to activate nicotinic cholinergic receptors (the physiological stimulus for CA secretion from these cells) and the α2AR agonist UK14304 to activate these negative feedback receptors."}}, "note": "Read-outs that look alike come from different tables or passages of the source."}
{"smiles": "Clc1cccc(Cl)c1N=C1NCCN1", "note": "[clonidine]", "values": [{"measurement": "Sympatholytic response to clonidine administration", "setting": "[1]", "value": "diminished sympatholytic responses"}]}
{"smiles": "COc1nc(C)nc(Cl)c1N=C1NCCN1", "note": "[moxonidine]", "values": [{"measurement": "Circulating Epi levels", "setting": "[2]; adrenal AdGFP-treated HF rats", "value": "virtually no effect"}, {"measurement": "Circulating NEpi levels", "setting": "[2]; adrenal AdGFP-treated HF rats", "value": "lowered"}, {"measurement": "NE and Epi plasma levels", "setting": "[2]; adrenal AdβARKct-treated HF rats", "value": "further significantly reduced"}, {"measurement": "Reason for early termination of the trials", "setting": "[3]", "value": "excessive adverse effects and fatalities"}, {"measurement": "SNS activity in heart failure patients", "setting": "[3]", "value": "significant reduction of SNS activity"}]}
{"smiles": "Brc1c(NC2=NCCN2)ccc2nccnc12", "note": "[UK14304]", "values": [{"measurement": "Inhibition of Epi and NE secretion in response to nicotine", "setting": "[4]; CSQ/Tg mouse-derived chromaffin cells", "value": "completely fails to inhibit"}, {"measurement": "EC50", "setting": "[4]; CSQ/Tg mouse-derived chromaffin cells, AdGFP cells, mean±s.e.m., read-out: EC50 of UK14304-mediated inhibition of Epi secretion", "value": "5500 ± 1300", "unit": "nM"}, {"measurement": "EC50", "setting": "[4]; CSQ/Tg mouse-derived chromaffin cells, AdGFP cells, read-out: EC50 of UK14304-mediated inhibition of NEpi secretion", "value": "8000 ± 2630", "unit": "nM"}, {"measurement": "EC50", "setting": "[4]; CSQ/Tg mouse-derived chromaffin cells, AdβARKct cells, read-out: EC50 of UK14304-mediated inhibition of Epi secretion", "value": "200 ± 1.5", "unit": "nM"}, {"measurement": "EC50", "setting": "[4]; CSQ/Tg mouse-derived chromaffin cells, AdβARKct cells, read-out: EC50 of UK14304-mediated inhibition of NEpi secretion", "value": "50 ± 1.4", "unit": "nM"}, {"measurement": "Inhibition of Epi and NE secretion in response to nicotine", "setting": "[4]; control (NLC) cells", "value": "attenuates catecholamine release"}, {"measurement": "Catecholamine secretion, UK14304 pre-treatment alone", "setting": "[4]; without nicotine", "value": "no effect"}, {"measurement": "Inhibition of secretion of both catecholamines in response to nicotine", "setting": "[5]; 10 μM UK14304 pre-treatment", "value": "fails to inhibit secretion"}, {"measurement": "EC50", "setting": "[5]; AdGFP cells, n=6, read-out: EC50 of UK14304-mediated inhibition of Epi secretion", "value": "6400 ± 2500", "unit": "nM"}, {"measurement": "EC50", "setting": "[5]; AdGFP cells, n=6, read-out: EC50 of UK14304-mediated inhibition of NEpi secretion", "value": "680 ± 25.1", "unit": "nM"}, {"measurement": "EC50", "setting": "[5]; AdβARKct cells, n=6, read-out: EC50 of UK14304-mediated inhibition of Epi secretion", "value": "100 ± 5.2", "unit": "nM"}, {"measurement": "EC50", "setting": "[5]; AdβARKct cells, n=6, read-out: EC50 of UK14304-mediated inhibition of NEpi secretion", "value": "110 ± 1.2", "unit": "nM"}, {"measurement": "Depolarization-induced Ca2+ entry", "setting": "[6]; HF chromaffin cells", "value": "fails to significantly alter"}, {"measurement": "Depolarization-induced Ca2+ entry", "setting": "[6]; control (sham) cells", "value": "significantly inhibited"}, {"measurement": "βarr1 recruitment to chromaffin cell membranes in response to α2AR stimulation", "setting": "[7]", "value": "large βarr1 recruitment"}, {"measurement": "Ability of UK14304 to inhibit CA secretion", "setting": "[8]; cells from AdβARKct-treated rats, 10 μM UK14304", "value": "normal and similar to control cells"}, {"measurement": "Effect of UK14304 on CA secretion in response to nicotine", "setting": "[8]; chromaffin cells from AdGRK2-treated rats, 10 μM UK14304", "value": "lost"}, {"measurement": "Effect of UK14304 on CA secretion in response to nicotine", "setting": "[8]; chromaffin cells from control AdGFP-treated rats, 10 μM UK14304", "value": "abolishes CA secretion"}]}
{"smiles": "CN1CCCC1c1cccnc1", "note": "(stereo not shown) [nicotine]", "values": [{"measurement": "Nicotine-stimulated Epi and NE secretion", "setting": "[8]; chromaffin cells from AdGFP-, AdGRK2- and AdβARKct-treated rats, 20 μM nicotine", "value": "to an equal extent"}]}
